Assay results from US20240158440A1, “PEPTIDE AND COMPOSITION CONTAINING PEPTIDE AS ACTIVE INGREDIENT” (MORINAGA MILK INDUSTRY CO., LTD., priority 2021, published 2024).
No end group written: not given here.

Tests used:
Assay type in all cases: in vivo
male ddy mice [1] = experiment: Tail suspension test; settings: for Immobile Time: control 99.0; for Immobile Time (second): 30 minutes before the test, control 88.9, *P<0.05 vs Control
Experimental: A tail suspension test used for screening an antidepressant was conducted. When a mouse is hung by fixing its tail and thus put under inescapable conditions, it is believed that the mouse first tries to escape and moves but becomes immobile by despair with the time. On the other hand, in a mouse treated with an antidepressant, the time of escaping behavior increases, and the immobile time decreases. That is, when the immobile time decreases, the drug is evaluated to have an antidepressive effect.
The WPH synthesized in Production Example 1 was administered at a dose of 1 mg, 10 mg or 100 mg per 1 kg body weight to male ddy mice 30 minutes before the test, and 30 minutes later, the mice were hung by fixing their tails to conduct the test (WPH administration group, n=9-11). For six minutes after starting, the time with immobile behavior was recorded.
Moreover, as a control, the same test was conducted using male ddy mice to which the peptide as the test substance was not administered (control group, n=9-11).
From the obtained results, the times (second) with immobile behavior were calculated as an indicator of the antidepressive activity.
The peptide NLPPLT synthesized in Production Example 2 was administered at a dose of 10 μg or 30 μg per 1 kg body weight to male ddy mice 30 minutes before the test, and 30 minutes later, the mice were hung by fixing their tails to conduct the test (peptide NLPPLT administration group, n=5-6). For six minutes after starting, the time with immobile behavior was recorded.
Moreover, as a control, the same test was conducted using male ddy mice to which the peptide as the test substance was not administered (control group, n=5-6). […]

male ddy mice [2] = experiment: Elevated plus maze test
Description: An elevated plus maze having a plus shape in which two flat plates (arms) of 25 cm×5 cm were crossed was placed at a height of 50 cm from the floor. One type of the arms is closed arms having transparent walls with a height of 15 cm, and a mouse can walk safely without fear of falling. The other arms are open arms without such walls, and the sides are open. […] Through anxiolytic treatment of a mouse, however, the time of stay in the open arms tends to be longer. Thus, in a confirmation test of an anxiolytic action, the anxiolytic activity becomes higher as the time of stay of a mouse in the open arms is longer or as the number of entries is higher. […]
The peptide NLPPLT synthesized in Production Example 2 was administered at a dose of 3 μg or 10 μg per 1 kg body weight to male ddy mice 30 minutes before the test, and 30 minutes later, each mouse was put on the central platform where the open arms crossed the closed arms to conduct the test (peptide NLPPLT administration group, n=6). For five minutes after starting, the total time of stay of the mouse on the open arms (time in open arms), the number of entries into the open arms (visit to open arms) and the total number of entries into the arms (total visits) were recorded.
Moreover, as a control, the same test was conducted using male ddy mice to which the peptide as the test substance was not administered (control group, n=6).
Furthermore, to examine the mechanism of action, the same test was conducted using male ddy mice to which 10 mg/kg of an antagonist of the serotonin 5-HT1A receptor, WAY100135 (manufactured by Tocris Bioscience) was orally administered in addition to 10 μg/kg body weight of the peptide NLPPLT synthesized in Production Example 2 (peptide NLPPLT+serotonin antagonist administration group, n=5).
From the obtained results, the proportions (%) of the time of stay on the open arms and the proportions (%) of the number of entries into the open arms were calculated as indicators of the anxiolytic activity, and the differences with a statistical significance were examined by the Tukey-Kramer method.

male ddy mice [3] = experiment: Open field test; settings: for Proportion (%) of Time of Stay in Center Circle / Proportion (%) of Number of Entries into Center Circle: 30 minutes before the test; for Proportion (%) of Time of Stay in Center Circle: control 0.3; for Proportion (%) of Number of Entries into Center Circle: control 1.5
Experimental: An open field test was conducted as a behavior test used for screening an antianxiety drug. […] […] Here, in this open field test, a circular field consisting of a plurality of concentric circles with a common center with different radii was used. The circle closest to the center in the field is considered as the center of the field, and the time in which a mouse placed in the center of the field stays in the center of the field is measured.
The peptide NLPPLT synthesized in Production Example 2 was administered at a dose of 10 μg, 30 μg or 100 μg per 1 kg body weight to male ddy mice 30 minutes before the test, and 30 minutes later, each mouse was put in the center of the field to conduct the test (peptide NLPPLT administration group, n=5). For five minutes after starting, the time of stay was recorded.
Moreover, as a control, the same test was conducted using male ddy mice to which the peptide as the test substance was not administered (control group, n=5-6).
From the obtained results, the proportions (%) of the time of stay were calculated as an indicator of the anxiolytic activity.

| Compound | Immobile Time (male ddy mice [1]; Table 7, NBQX 10 mg/kg (i.p.) alone) [s] | Proportion (%) of Time of Stay on Open Arms (male ddy mice [2]; Table 2, peptide alone (dose not given; 10 μg/kg), control 20.9) [%] | Proportion (%) of Number of Entries into Open Arms (male ddy mice [2]; Table 2, peptide alone (dose not given; 10 μg/kg), control 26.7) [%] | Proportion (%) of Time of Stay on Open Arms (male ddy mice [2]; Table 3, 3 μg/kg, 30 minutes before the test, control 15.4) [%] | Proportion (%) of Number of Entries into Open Arms (male ddy mice [2]; Table 3, 3 μg/kg, 30 minutes before the test, control 22.7) [%] | Proportion (%) of Time of Stay on Open Arms (male ddy mice [2]; Table 3, 10 μg/kg, 30 minutes before the test, control 15.4) [%] | Proportion (%) of Number of Entries into Open Arms (male ddy mice [2]; Table 3, 10 μg/kg, 30 minutes before the test, control 22.7) [%] | Anxiolytic activity (time of stay on / entries into open arms compared to control) (male ddy mice [2]; conclusion in words) | Immobile Time (second) (male ddy mice [1]; Table 6, 0.01 mg/kg) | Immobile Time (second) (male ddy mice [1]; Table 6, 0.03 mg/kg) | Immobile Time (male ddy mice [1]; Table 7, NLPPLT 0.01 mg/kg (p.o.) alone) [s] | Antidepressive activity (time with immobile behavior compared to control) (male ddy mice [1]; conclusion in words) | Proportion (%) of Time of Stay in Center Circle (male ddy mice [3]; 0.01 mg/kg) [%] | Proportion (%) of Number of Entries into Center Circle (male ddy mice [3]; 0.01 mg/kg) [%] | Proportion (%) of Time of Stay in Center Circle (male ddy mice [3]; 0.03 mg/kg) [%] | Proportion (%) of Number of Entries into Center Circle (male ddy mice [3]; 0.03 mg/kg) [%] | Proportion (%) of Time of Stay in Center Circle (male ddy mice [3]; 0.1 mg/kg) [%] | Proportion (%) of Number of Entries into Center Circle (male ddy mice [3]; 0.1 mg/kg) [%] | Anxiolytic activity (time of stay in center compared to control) (male ddy mice [3]; conclusion in words) |
| --- | --- | --- | --- | --- | --- | --- | --- | --- | --- | --- | --- | --- | --- | --- | --- | --- | --- | --- | --- |
| NS(=O)(=O)c1cccc2c1c([N+](=O)[O-])cc1nc(O)c(O)nc12 [AMPA Antagonist, NBQX, reference compound] | 69.8 |  |  |  |  |  |  |  |  |  |  |  |  |  |  |  |  |  |  |
| NLPPLT [Peptide NLPPLT] |  | 33.1 | 35.1 | 19.9 | 23.4 | 24.4 | 31.7 | has an anxiolytic activity | 15.7* second | 27.1* second | 23.0 | has an antidepressive activity | 0.6 | 1.7 | 0.7 | 1.6 | 0.8 | 2.1 | has an anxiolytic activity |
